Assay results as given in ChEMBL document CHEMBL3392976, “The discovery of novel 3-(pyrazin-2-yl)-1H-indazoles as potent pan-Pim kinase inhibitors” (Bioorg Med Chem Lett, 2015).

Assays:
in vivo [1] = conditions: Sprague-Dawley, rat, iv, 2 mg/kg
in vivo [2] = conditions: Sprague-Dawley, rat, po, 5 mg/kg
in vivo [3] = conditions: Sprague-Dawley, rat, iv, 2 mg/kg; remark: listed apart in the source
in vivo [4] = conditions: Sprague-Dawley, rat, plasma, po, 5 mg/kg
in vivo [5] = conditions: Sprague-Dawley, rat, iv, 2 mg/kg; remark: listed apart in the source

Fc1cccc(F)c1-c1ccc2[nH]nc(-c3cncc(O[C@H]4CNCCC45CC5)n3)c2c1 showed a half-life (in vivo [1]) of 162 min, a bioavailability (in vivo [2]) of 89% and a clearance (in vivo [3]) of 16.7 mL/min/kg. The AUC (in vivo [4]) was 12.2 µM·h and the Vd (in vivo [5]) was 3.7 L/kg.
